PMC3546527 (MedChemComm, 2012)

Biological target: HK853 (Thermotoga maritima, UniProt Q9WZV7)
Test: STD-NMR
Assay type: binding

Nc1ncnc2c1ncn2[C@@H]1O[C@H](COP(=O)(O)OP(=O)(O)O)[C@@H](O)[C@H]1O [ADP]
f STD ^a: 73.3
